Source: paper PMC10958470 (Virus Research, 2024)
Where “and” joins values, the source holds several entries; their conditions need not be identical. Equal entries are not always repeated. Structures can show the parent of a compound that is named as a salt. Where two headings read alike, the source gives them in different places.

What was measured:
[1] = target: SARS-CoV-2 RdRp nsp12/7/8 complex (Severe acute respiratory syndrome coronavirus 2, UniProt P0DTD1); test: biochemical; format: biochemical; settings: for inhibition at 20 µM: read-out: RdRp Inhibition [%] 20 µM (PS Inhibition RdRp [%])
[2] = target: SARS-CoV-2 helicase (nsp13) (Severe acute respiratory syndrome coronavirus 2, UniProt P0DTD1); test: biochemical; format: biochemical
SARS-CoV-2 helicase = SARS-CoV-2 helicase (Severe acute respiratory syndrome coronavirus 2, UniProt P0DTD1); format: binding
[3] = target: SARS-CoV-2 nsp13 NTPase activity (Severe acute respiratory syndrome coronavirus 2, UniProt P0DTD1); test: biochemical; format: biochemical; settings: for inhibition at 20 µM: read-out: ATPase inhibition [%] 20 µM (HC Helicase ATPase inhibition [%])
[4] = read-out: DTT Helicase unwinding inhibition [%] 2.5 µM triplicates
[5] = read-out: Helicase Inhibition [%] 20 µM (PS Inhibition Helicase [%])

Molecule | PicoGreen effect [%] 20 µM (annealed dsDNA substrate) [%] | RdRp Inhibition [%] 20 µM (PS Inhibition RdRp [%]) [1] [%] | Helicase Inhibition [%] 20 µM (PS Inhibition Helicase [%]) [2] [%] | inhibition at 20 µM [2, 5] [%] | IC50 ([1]; RdRp IC50 [µM]) [µM] | inhibition at 20 µM [1] [%] | other results
N#C/C(=C\c1ccc(O)c(O)c1)C(=O)OCCc1cccs1 [2-TEDC] | 7.15 | 97.86 | 8.66 | – | – | – | IC50 ([1]; read-out: RdRp IC50): 7.99 µM
O=C(O[C@@H]1Cc2c(O)cc(O)cc2O[C@@H]1c1cc(O)c(O)c(O)c1)c1cc(O)c(O)c(O)c1 [(−)-epigallocatechin gallate] | – | 85.49 | – | 96.4 | – | – | Helicase Tm °C 20 µM (SARS-CoV-2 helicase): 38.4 °C; Helicase Tm °C 100 µM (SARS-CoV-2 helicase): 39.6 °C; effect on helicase Tm (SARS-CoV-2 helicase): did not result in a Tm change; DTT Helicase ATPase activity PLUS DNA substrate 2 µM [3]: 31.66; DTT Helicase ATPase activity [%] 2 µM [3]: 43.42%; gain of ATPase activity reduction in the presence of dsDNA substrate [3]: 10–15%; DTT nsp13 inhibition [%] 20 µM (DTT HC Helicase inhibition [%]) [2]: 78.10%; inhibition at 2.5 µM [2, 4]: 73.5%
Nc1ncnc2c1ncn2[C@@H]1O[C@H](COP(=O)(O)OP(=O)(O)OP(=O)(O)O)[C@@H](O)[C@H]1O [ATP, adenosine triphosphate] | – | – | – | – | – | – | apparent Kmapp (RdRp substrates) [1]: 102.7 µM; Kmapp (mM) ATP, - DTT [2]: 1.9 mM
O=C(O)c1ccccc1Nc1ccc(CCc2ccc(Cl)c(Cl)c2)cc1 [PD-118057] | 11.19 | 81.81 | 7.76 | – | – | – | IC50 ([1]; read-out: RdRp IC50): > 20 µM
C=CCn1c(CSc2ccccc2[N+](=O)[O-])n[nH]c1=S [SSYA10-001] | – | – | – | – | – | – | inhibition of helicase NTPase activity, absence of DTT [3]: inhibits NTPase activity only in the absence of DTT; inhibition of helicase unwinding activity in presence of DTT [2]: effectively eliminated the inhibition
CC(C)c1ccccc1Cc1cc(C(=O)Nc2ccc(S(=O)(=O)c3ccccc3C(C)(C)C)cc2)c(O)c(O)c1O [TW-37] | 3.9 | 89.4 | 3.76 | – | – | – | IC50 ([1]; read-out: RdRp IC50): 13.7 µM
OC[C@H]1O[C@H]([S-])[C@H](O)[C@@H](O)[C@@H]1O.[Au+] [aurothioglucose] | 13.9 | 4.77 | 100.73 | – | – | – | ATPase inhibition [%] 20 µM (HC Helicase ATPase inhibition [%]) [3]: 106.07%; DTT nsp13 inhibition [%] 20 µM (DTT HC Helicase inhibition [%]) [2]: 98.65%; IC50 ([2]; read-out: DTT Helicase IC50): 10.6 µM; IC50 ([2]; read-out: Helicase IC50): 1.95 µM
CC1(C)C(/C=C/C=C/C=C/C=C2\N(CCCCS(=O)(=O)O)c3ccc4ccccc4c3C2(C)C)=[N+](CCCCS(=O)(=O)[O-])c2ccc3ccccc3c21 [cardiogreen] | 26.52 | 4.44 | – | – | – | – | ATPase inhibition [%] 20 µM (HC Helicase ATPase inhibition [%]) [3]: 97.11%; DTT Helicase ATPase activity PLUS DNA substrate 2 µM [3]: 51.49; DTT Helicase ATPase activity [%] 2 µM [3]: 60.43%; Helicase ATPase activity PLUS DNA substrate 2 µM [3]: 32.88; Helicase ATPase activity [%] 2 µM [3]: 45.65%; gain of ATPase activity reduction in the presence of dsDNA substrate [3]: 10–15%; remaining NTPase activity [3]: 60.4%; DTT Helicase unwinding inhibition [%] 2.5 µM triplicates [2]: 65% and 65.01%; DTT nsp13 inhibition [%] 20 µM (DTT HC Helicase inhibition [%]) [2]: 94.06%; Helicase unwinding inhibition 2.5 µM triplicates [2]: 66.59; IC50 ([2]; read-out: DTT Helicase IC50): 3.85 µM; IC50 ([2]; read-out: Helicase IC50): 3.57 µM
Cc1cc(N)c2ccccc2[n+]1CCCCCCCCCC[n+]1c(C)cc(N)c2ccccc21 [dequalinium chloride] | −4.04 | – | – | 25.6 | 4.07 | 94.6 | –
O=C(Nc1ccc2c(O)cc(S(=O)(=O)[O-])cc2c1)Nc1ccc2c(O)cc(S(=O)(=O)[O-])cc2c1.[Na+].[Na+] [disodium 7,7′-(carbonyldiimino) bis(4-hydroxy-2-naphthalenesulfonate)] | – | 90.5 | 84.75 | – | – | – | IC50 ([1]; read-out: RdRp IC50): > 20 µM; DTT Helicase ATPase activity PLUS DNA substrate 2 µM [3]: 103.05; DTT Helicase ATPase activity [%] 2 µM [3]: 103.17%; DTT Helicase unwinding inhibition [%] 2.5 µM triplicates [2]: 6.27%; DTT nsp13 inhibition [%] 20 µM (DTT HC Helicase inhibition [%]) [2]: 65.72%; IC50 ([2]; read-out: DTT Helicase IC50): > 20 µM
CCOc1ccc2nc3cc(N)ccc3c(N)c2c1 [ethacridine lactate] | 32.09 | – | – | 35.5 | 9.96 | 80.3 | –
O=C(c1cc(O)c(O)c(O)c1)c1ccc(O)c(O)c1O [exifone] | 8.87 | – | – | 100 | – | 36.6 | Helicase Tm °C 20 µM (SARS-CoV-2 helicase): 38.3 °C; Helicase Tm °C 100 µM (SARS-CoV-2 helicase): 37.8 °C; effect on helicase Tm (SARS-CoV-2 helicase): decrease in Tm; DTT Helicase ATPase activity PLUS DNA substrate 2 µM [3]: 2.64; DTT Helicase ATPase activity [%] 2 µM [3]: 14.53%; Helicase ATPase activity PLUS DNA substrate 2 µM [3]: 4.96; Helicase ATPase activity [%] 2 µM [3]: 11.33%; gain of ATPase activity reduction in the presence of dsDNA substrate [3]: 10–15%; remaining NTPase activity [3]: 14.5%; inhibition at 20 µM [3]: 104%; DTT Helicase unwinding inhibition [%] 2.5 µM triplicates [2]: 99.91%; inhibition at 2.5 µM [2, 4]: 99.9%; inhibition at 2.5 µM ([2]; read-out: Helicase unwinding inhibition 2.5 µM triplicates): 49.9%
OCCOCCN1CCN(C(c2ccccc2)c2ccc(Cl)cc2)CC1 (stereo not shown) [hydroxyzine pamoate] | 1.28 | – | – | 4.28 | 16.5 | 76.8 | –
C=C1c2cccc(O)c2C(=O)C2=C(O)[C@]3(O)C(=O)C(C(N)=O)=C(O)[C@@H](N(C)C)[C@@H]3[C@@H](O)[C@H]12 [methacycline hydrochloride] | 25.54 | – | – | 25.2 | 6.43 | 120 | –
O=c1c(O)c(-c2ccc(O)cc2O)oc2cc(O)cc(O)c12 [morin hydrate (aurantica), morin hydrate] | 20.36 | 95.67 | 39.33 | – | – | – | IC50 ([1]; read-out: RdRp IC50): 5.96 µM
O=C(N/N=C/c1ccc([N+](=O)[O-])o1)c1cc([N+](=O)[O-])cc([N+](=O)[O-])c1O [nifursol] | 8.54 | – | – | 5.5 | 11.5 | 100 | –
O=C(O)c1cc(/N=N/c2ccc(O)c(C(=O)O)c2)ccc1O [olsalazine sodium] | 12.75 | – | – | – | 14.4 | 84.7 | –
Cc1c(Cl)c(C)[n+]([O-])c(Cl)c1-c1noc(-c2cc(O)c(O)c([N+](=O)[O-])c2)n1 [opicapone] | 6.86 | – | – | – | – | 17.9 | inhibition at 20 µM [3]: 96.9%; DTT nsp13 inhibition [%] 20 µM (DTT HC Helicase inhibition [%]) [2]: 51.40%; IC50 ([2]; DTT Helicase IC50 [µM]): 25.5 µM; IC50 ([2]; Helicase IC50 [µM]): 1.1 µM; inhibition at 20 µM ([2]; read-out: DTT nsp13 inhibition [%] 20 µM (DTT HC Helicase inhibition [%])): > 50%
CN(C)[C@@H]1C(O)=C(C(N)=O)C(=O)[C@@]2(O)C(O)=C3C(=O)c4c(O)cccc4[C@@](C)(O)[C@H]3[C@H](O)[C@@H]12 [oxytetracycline] | 19.99 | – | – | 16.4 | 16.1 | 100 | –
COc1cc(NC(C)CCCN)c2ncccc2c1 (stereo not shown) [primaquine phosphate] | 1.58 | – | – | 7.17 | 6.56 | 102 | –
O=C(O)c1c(Cl)c(Cl)c(Cl)c(Cl)c1-c1c2cc(I)c(=O)c(I)c-2oc2c(I)c(O)c(I)cc12 [rose bengal sodium salt] | 30.91 | – | – | 21.5 | > 20 | 98 | –
O=C1OC2(c3cc(I)c(O)c(I)c3Oc3c2cc(I)c(O)c3I)c2c(Cl)c(Cl)c(Cl)c(Cl)c21 [rose-bengal-lactone] | 35.69 | 99.44 | −2.61 | – | – | – | –
FPA-124 | −3.30 | 7.70 | – | – | – | – | DTT nsp13 inhibition [%] 20 µM (DTT HC Helicase inhibition [%]) [2]: 64.76%
tyrphostin-AG-835 | 11.5 | 84.15 | 7.56 | – | – | – | IC50 ([1]; read-out: RdRp IC50): 9.64 µM
